The series is described as follows: Human HepG2 cell viability assay in 384 well format. In kind it is toxicity, cell-based. Set-up: dose 125 nL, time 70.5 hour; cytotoxicity at 70.5 h: concentration not given beside the values. The conditions noted are these: HepG2 cells, read-out: Inhibition.
As to `COCc1nc(C(=O)N(Cc2ccccc2)CC(C)C(=O)O)cs1` (stereo not given), the cytotoxicity at 70.5 h is -4.63%.

With `CC(C1CCN(Cc2ccc(N(C)C)nc2)CC1)N1CCOCC1` (stereo not given), the cytotoxicity at 70.5 h turned out to be 8.61%.

Consider `Cc1cccc(CS(=O)(=O)CC(O)Cn2cccn2)c1` (stereo not given), for which the cytotoxicity at 70.5 h was -4.24%. As for `CCOCc1ccccc1NC(=O)NCC(c1cnn(C)c1)N(C)C` (stereo not given), the cytotoxicity at 70.5 h was -5.82%. Turning to `COc1cccc(N2CCC(CNC(=O)CN3CSCC3=O)C2)c1` (stereo not given), the cytotoxicity at 70.5 h is -9.99%. As to `COc1ccc(-c2cnc(N(C)C)nc2C2CN(C(C)=O)CCO2)cc1` (stereo not given), the cytotoxicity at 70.5 h was -11.5%. For the compound `COc1cnc(N2C[C@@H](CN3CCOCC3)[C@@H](CO)C2)nc1`, the cytotoxicity at 70.5 h was -5.35%. With `O=C(Nc1cccc(N2CCCC2)c1)C1CCCN1c1nccs1` (stereo not given), the cytotoxicity at 70.5 h was -2.18%. The value for `CCc1nc2n(n1)CC(Nc1cc(C)nc3ncnn13)CC2` (stereo not given) was -5.27%. As for `CC(NC(N)=O)C(=O)NCc1ccnc(Oc2ccc(F)cc2)c1` (stereo not given), the cytotoxicity at 70.5 h was -0.577%.

Turning to `CCc1nc(CNC2CCCc3c2cnn3CC)cs1` (stereo not given), the cytotoxicity at 70.5 h was 6.14%. `Cn1cc(CN2CCC(F)(F)C3(CCN(c4cnccn4)C3)C2)cn1` (stereo not given): the cytotoxicity at 70.5 h is -0.766%. The value for `Cc1ccc(CN2C[C@H](OCCN(C)C)[C@H]3COC[C@H]32)o1` was -0.961%; that for `CCN(CC)c1ccc2ccc(C(=O)NC3CC3)cn12` was -0.636%; that for `CCc1nccn1CC(=O)N1C[C@H]2CC[C@@H]1CN(S(=O)(=O)N(C)C)C2` was 1.78%. On to `CCN(C(=O)C1CCC1)C(c1cccnc1)c1ccc2c(c1)CCO2` (stereo not given), for which the cytotoxicity at 70.5 h was determined as 38.8%. Take `COCCNC(=O)Nc1ccn(-c2cccc(C(F)(F)F)c2)n1`: the cytotoxicity at 70.5 h was found to be 9.44%. For the compound `c1ccc(OCCNc2ncnc3sc4c(c23)CCNC4)cc1`, the cytotoxicity at 70.5 h came out at 1.62%.

For the compound `CCN(C1CCN(C(=O)c2cccc(Cl)c2)CC1)S(C)(=O)=O`, the cytotoxicity at 70.5 h was -6.65%. With `CC(=O)N1CCC(Cc2cnc(-c3c(C)nn(C)c3C)cn2)C1` (stereo not given), the cytotoxicity at 70.5 h was -25.8%.

In the case of `COC(=O)C(NC(=O)c1ccc(N(C)C)nc1)c1ccccc1` (stereo not given), the cytotoxicity at 70.5 h was -8.4%. With `c1cc(CN2Cc3nnn(CC4CC4)c3C(COCC3CC3)C2)co1` (stereo not given), the cytotoxicity at 70.5 h is -8.27%.

Turning to `CN(Cc1nc(N2CCCC2)ncc1-c1ccncc1)C(=O)C(C)(C)C`, the cytotoxicity at 70.5 h was -2.37%. With `CN(CCCNC(=O)CN1CCS(=O)(=O)CC1)c1ccccc1`, the cytotoxicity at 70.5 h is -6.59%. Take `Cc1cccc(CN2C[C@H](OCc3ccccn3)[C@H]3COC[C@H]32)n1`: the cytotoxicity at 70.5 h worked out at 5.07%.

For `Cc1nc(C)n(CC2CCCN(c3ncnc4ccsc34)C2)n1` (stereo not given), the cytotoxicity at 70.5 h amounted to 26.2%.

With `O=C(O)c1c(-c2ccncc2)ncc2c1CCN(Cc1ccco1)C2`, the cytotoxicity at 70.5 h came to 3.95%. As for `COCC(=O)Nc1ccc([C@@H](O)[C@H]2COCC(=O)N2C)cc1`, the cytotoxicity at 70.5 h is -1.45%. The value for `CC(NC(C)(C)CN)c1ccccc1` (stereo not given) was -0.00601%; that for `COC(=O)[C@H]1CN(C(=O)NC(C)C)CCN1C(=O)c1cccs1` was -5.45%. With `CN(C)[C@@H]1CO[C@H](CNC(=O)c2ccccc2)[C@H]1O`, the cytotoxicity at 70.5 h was -8.77%. For `CC1CN(Cc2nnsc2Cl)CCN1c1nccs1` (stereo not given), the cytotoxicity at 70.5 h is -19.1%. In the case of `CC(=O)N1CCN(CCNS(=O)(=O)c2c(F)cccc2F)CC1` it was -5.97%; in that of `O=C(NCCNc1ncccn1)C1CCN(C(=O)c2ccoc2)CC1`, -3.53%.

With `O=C(NCc1cccnc1)N1CCSCC1CCO` (stereo not given), the cytotoxicity at 70.5 h was 13.2%. In the case of `CCN(Cc1nc(COC)no1)Cc1cccnc1NC` it was -21.9%; in that of `Nc1nc(C2CCN(C(=O)c3cnccn3)CC2)cs1`, 15.4%; in that of `Cc1cc(CNC(=O)NC(C)(CO)C2CC2)c(C)s1` (stereo not given), -5.03%. As to `CN(C(=O)CCNC(=O)NC1CCCCC1)c1ccccc1`, the cytotoxicity at 70.5 h stood at 38.6%. The value for `Cc1ccc(S(=O)(=O)N2CSCC2C(=O)NCC(F)(F)F)cc1C` (stereo not given) was -3.59%. With `Cc1nc(CNC(=O)NC(C)c2ccc3c(c2)OCCO3)cs1` (stereo not given), the cytotoxicity at 70.5 h was 53.9%. As to `COC(=O)c1ccc(Cn2cnc(C#N)n2)cc1`, the cytotoxicity at 70.5 h is -12%. With `O=C(Cc1ccccc1)NCCNS(=O)(=O)C1CCCCC1`, the cytotoxicity at 70.5 h is -2.64%. In the case of `CCc1c(C)nc2cc(C3CCN(Cc4ccncc4C)C3)nn2c1O` (stereo not given), the cytotoxicity at 70.5 h was -3.92%. In the case of `CCC(C)C(=O)N(Cc1ccccn1)C1CC1` (stereo not given) it was 25.9%; in that of `O=C(c1cc(F)ccc1O)N1CCN(C2CCOCC2)CC1`, 0.856%; in that of `COc1ccc(-c2cnc(NC(C)=O)[nH]2)cc1`, 10.1%. Consider `CCN(CC)S(=O)(=O)N(CC)Cc1ccc2c(c1)OCCO2`, for which the cytotoxicity at 70.5 h is -10.6%. In the case of `CN1CCN(CCO)C(=O)C12CCN(c1nccs1)CC2`, the cytotoxicity at 70.5 h is -2.35%. In the case of `Cc1cc(-c2nccn2CCN2CCCCC2CO)oc1C` (stereo not given), the cytotoxicity at 70.5 h is -5.85%. Take `O=C(C1CCC2(CCN(CC3CCOCC3)CC2)O1)N1CCCCO1` (stereo not given): the cytotoxicity at 70.5 h was -5.73%. Regarding `Cn1ccc(C(=O)NCc2cccc(NC(=O)C3CCC3)c2)cc1=O`, the cytotoxicity at 70.5 h was -13.3%. With `CCN(CC)Cc1ccc(C(=O)NC2CCc3cc(Cl)ccc32)o1` (stereo not given), the cytotoxicity at 70.5 h is 21.2%. For `Cc1nc[nH]c1CN1CCN(C(=O)c2cccs2)[C@H]2CS(=O)(=O)C[C@H]21`, the cytotoxicity at 70.5 h was -8.73%. On to `CSc1ccc(NS(=O)(=O)c2cnn(C)c2)cn1`, for which the cytotoxicity at 70.5 h is -1.76%. With `Cn1ccc(CN2CCC(CO)CC2)cc1=O`, the cytotoxicity at 70.5 h was -9.02%. Regarding `Cc1cnn(CCCNC(=O)NCCC(=O)Nc2ccccc2)c1`, the cytotoxicity at 70.5 h is -11.8%. Take `CS(=O)(=O)N1CCC(CNc2cc(Cl)ccc2C#N)CC1`: the cytotoxicity at 70.5 h is -6.86%.

As for `c1ccc(CSc2nnc(C3CC3)s2)nc1`, the cytotoxicity at 70.5 h is -7.57%. As for `Cn1cnnc1S(=O)(=O)Cc1cc(Cl)c2c(c1)OCO2`, the cytotoxicity at 70.5 h was 7.74%. In the case of `Cc1c(C)n(CC(O)CN2CCCCCC2)c2c(Cl)cccc12` (stereo not given) it was 20.5%. The value for `CCc1ccc(S(=O)(=O)Nc2cc(C(=O)O)c(F)cc2F)s1` was 26.3%; that for `CCC(=O)N1CCC(c2nnc(Cn3cccn3)n2C2CC2)CC1` was -6.95%.

In the case of `Cc1cc(C)nc(N2CCC(c3cc(CCO)[nH]n3)C2)n1` (stereo not given), the cytotoxicity at 70.5 h was -12.4%. Turning to `CCCc1n[nH]c(C2CN(CCCOc3ccccc3)CCO2)n1` (stereo not given), the cytotoxicity at 70.5 h is -6.69%. `Cc1ccc(CNC2(Cc3cc(CC(C)C)on3)COC2)o1`: the cytotoxicity at 70.5 h was 9.27%. Turning to `CSCCCNC(=O)C(c1ccccc1C)N(C)C` (stereo not given), the cytotoxicity at 70.5 h is -6.07%. Consider `CN(CCS(=O)(=O)c1cc(Cl)ccc1Cl)CC(N)=O`, for which the cytotoxicity at 70.5 h was -0.37%.

As for `CNCCCNc1nc(C2CCCC2)nc2c1cnn2C`, the cytotoxicity at 70.5 h came to 2.51%. As for `Cc1ccc(OCCCNC(=O)CN(C)c2ccc(C#N)cn2)cc1`, the cytotoxicity at 70.5 h stood at 3.18%. `Cc1nn(C)c(N(C)C)c1CNCC(O)c1ccccc1F` (stereo not given): the cytotoxicity at 70.5 h is -15.4%. In the case of `O=C(NCc1ccccn1)NC1CCOc2ccccc21` (stereo not given) it was 20.6%; in that of `CCc1c(NCc2ccncc2)cnn1CC(C)C`, -5.95%. `CO[C@H]1CCN(C(=O)c2cc(C)on2)[C@H]1Cc1ccncc1`: the cytotoxicity at 70.5 h was -7.23%. In the case of `CCc1c(C)nc(-n2nc(C3CC3)cc2NC(C)=O)[nH]c1=O` it was 1.53%. In the case of `CC(C)COC(=O)N1CCCN(C(C)c2nnc(CC(C)C)o2)CC1` (stereo not given) it was -3.09%; in that of `CCn1cc(NC(=O)c2cccc(CN3C[C@@H](C)O[C@@H](C)C3)c2)nn1`, 4.2%; in that of `CCC(Oc1ccc(N(C)S(C)(=O)=O)cc1)C(N)=O` (stereo not given), -5.31%. `Cc1cccc(NC(=O)N2CCn3cnc(COCC4CC4)c3C2)c1`: the cytotoxicity at 70.5 h is -13.2%. Turning to `c1cnc(N2CCOCC3(CCCN(Cc4cccs4)C3)C2)nc1` (stereo not given), the cytotoxicity at 70.5 h was determined as 19.9%. With `Cc1cc(C(=O)NCC2CCS(=O)(=O)C2)ccc1NC(=O)c1ccco1` (stereo not given), the cytotoxicity at 70.5 h stood at 2.82%.

For `CN(CCn1nc2ccccn2c1=O)CC(=O)N1CCCC1`, the cytotoxicity at 70.5 h turned out to be 4.26%. For the compound `CN(Cc1nnc(-c2cccs2)o1)Cc1nc2c(s1)CCCC2`, the cytotoxicity at 70.5 h was -14.1%. In the case of `CNC(=O)[C@@H]1C[C@H]2CN(Cc3ccco3)C[C@H]2N1C`, the cytotoxicity at 70.5 h was -15.3%. For the compound `Cc1cc(-c2ccccc2Cl)nc(N)n1`, the cytotoxicity at 70.5 h was -8.36%. `Cc1nn(C)c2cnn(CC(=O)NCc3ccccc3F)c12`: the cytotoxicity at 70.5 h was -8.04%. Take `O=C(NCc1ccco1)[C@H]1C[C@@H]2CCN(c3cccc(F)c3)C[C@H]2O1`: the cytotoxicity at 70.5 h was -5.03%. The value for `OC1(CN(Cc2cccnc2)C2CCCCC2)CNCCOC1` (stereo not given) was -2.72%; that for `COc1ccc(C(=O)N2C[C@@H](CN3CCCC3)[C@@H](CO)C2)c(C)c1` was -8.12%. As for `Cc1ccc2c(c1)OC1(NC2=O)C(=O)N(C)c2ccccc21` (stereo not given), the cytotoxicity at 70.5 h came to 16.7%. As for `CCS(=O)(=O)N1CCc2c(cccc2NC(=O)NCCO)C1`, the cytotoxicity at 70.5 h amounted to 12.8%. For the compound `c1cnc(N2CCO[C@H]3[C@H](OCC4CC4)CC[C@@H]32)nc1`, the cytotoxicity at 70.5 h is -7.29%. `CCCNC(=O)C(C)NC(=O)CCc1ccccc1Br` (stereo not given): the cytotoxicity at 70.5 h is -6.3%.

As to `CC(=O)N1N=C(c2ccccc2)OC1C(=O)NCCN(C(C)C)C(C)C` (stereo not given), the cytotoxicity at 70.5 h is -6.17%. Regarding `COc1ccc(C(C)Nc2ncc(C(N)=O)cc2Cl)c(OC)c1` (stereo not given), the cytotoxicity at 70.5 h was -4.47%.

On to `COc1cccc2c1OCC(C(=O)N1CCN(S(C)(=O)=O)CC1)C2` (stereo not given), for which the cytotoxicity at 70.5 h was determined as 20.3%. `Cc1ncsc1CCN(C)C(=O)CN1CCCCC1=O`: the cytotoxicity at 70.5 h was 12.5%. Regarding `Cc1nc(C2CCN(S(C)(=O)=O)CC2)nc(N2CCCC2)c1C`, the cytotoxicity at 70.5 h was -3.13%. `OCc1csc(N2C[C@@H](CN3CCCCCC3)[C@@H](CO)C2)n1`: the cytotoxicity at 70.5 h was -7.86%. Consider `CCn1cc(NC(=O)NCc2ccc3c(c2)OCO3)cn1`, for which the cytotoxicity at 70.5 h is -1.53%.
